Data on 1 substance can be found in patent EP0052910A1, “Derivative of N-acetilcysteine having therapeutical activity, process for its preparation and related pharmaceutical compositions” (Real S.a.s. di Alberto Reiner & C., priority 1980, dated 1982).

Assay [1] deals with male rats, of the Sprague-Dawley strain. Description: Anti-inflammatory activity in the egg white test. It counts as in vivo. Conditions: orally, 0.1 ml of egg white in the rear paw, measured 3 and 4 hours later. As to the method:
For each compound 16 male rats, of the Sprague-Dawley strain and weighing 300 g, were used. The animals were divided in four groups each comprising four rats. The first group served as a control, whereas the other three gropus were orally administered, with a 30 minute interval, with two doses of 50,75 and 100 mg/kg of the test compound. The last administration was immediately followed by the inoculation of 0.1 ml of egg white in the rear paw of all the animals, including the controls. The measurements of the diameters of the articulations were effected 3 and 4 hours later.

In assay [2] the test system is rats of male sex, of the Sprague-Dawley strain. Description: Anti-inflammatory activity in the kaolin test. The assay is classed as in vivo. Conditions: 10% suspension of kaolin injected, diameter of the tibio-tarsal articulation. As to the method:
a) Anti-inflammatory activity in the kaolin test. For each compound 16 rats of male sex, of the Sprague-Dawley strain and of 200-250 g of body weight, were used. The rats were divided into four groups each comprising four rats. All.-the animals were injected with a 10% suspension of kaolin. The first group was used as the control, whereas the other three groups were administered with doses respectively of 50,75 and 100 mg/kg. The measurements of the diamzrers of the articulation were effected one hour after the kaolin injection and then every 24 hours.
The inoculation of kaolin caused an increase of the tibio-tarsal articulation which has been partially limited by the treatment with the test compound.

Turning to “p-isobutylphenylpropionoylthio-N-acetylcysteine”, the Anti-inflammatory activity % came out at 12% in assay [1] (two doses of 75 mg/kg with a 30 minute interval), 20% in assay [1] (two doses of 100 mg/kg with a 30 minute interval), 12% in assay [2] (dose 75 mg/kg) and 26% in assay [2] (dose 100 mg/kg).
